Experimental data as given in patent US11331351B2, “Bacillus strains improving health and performance of production animals” (priority 2015, dated 2022).
Values after ≈ are worked out from the molar mass of the structure shown. Read-outs that look alike come from different tables or passages of the source. Bridge positions count the residues as written; N and C are the ends. Square brackets hold non-standard residues; d marks the D form. Peptide text beside a SMILES is read from it. * marks the point of attachment. Ileψ(thiazoline)Cys = CC[C@H](C)[C@H](N)C1=N[C@H](C(=O)*)CS1; dOrn = NCCC[C@@H](N)C(=O)O

Legend:
B. subtilis DSM 29871 [1] = assay type: cell-based, Bacillus subtilis; settings: for MIC: Bacillus subtilis
[2] = tested on: B. amyloliquefaciens DSM 29869; assay type: cell-based, Bacillus amyloliquefaciens; settings: for MIC: Bacillus amyloliquefaciens
B. subtilis DSM 29870 [3] = assay type: cell-based, Bacillus subtilis; settings: for MIC: Bacillus subtilis
B. subtilis DSM 29871 [4] = settings: EFSA Journal 2012; 10(6): 2740; cited from earlier work
[5] = tested on: B. amyloliquefaciens DSM 29869; settings: EFSA Journal 2012; 10(6): 2740; cited from earlier work
B. subtilis DSM 29870 [6] = settings: EFSA Journal 2012; 10(6): 2740; cited from earlier work
Clostridium perfringens = assay type: in vivo, broiler chickens Cobb×Cobb; settings: bacitracin 50 ppm; for Lesion score (d 21): 0 to 3 score; for BWG (g/bird) (d 1-d 28) / Dead birds with necrotic enteritis lesions (%) (d 1-d 28) / FCR (d 1-d 28) / Total mortality (%) (d 1-d 28): infected
[7] = DSM29871, biological replicate MIC 1, 37° C., 20-24 h, read-out: MIC 1
[8] = DSM29871, biological replicate MIC 2, 37° C., 20-24 h, read-out: MIC 2
[9] = DSM29871, biological replicate MIC 3, 37° C., 20-24 h, read-out: MIC 3
[10] = DSM29869, biological replicate MIC 1, 37° C., 20-24 h, read-out: MIC 1
[11] = DSM29869, biological replicate MIC 2, 37° C., 20-24 h, read-out: MIC 2
[12] = DSM29869, biological replicate MIC 3, 37° C., 20-24 h, read-out: MIC 3
[13] = DSM29870, biological replicate MIC 1, 37° C., 20-24 h, read-out: MIC 1
[14] = DSM29870, biological replicate MIC 2, 37° C., 20-24 h, read-out: MIC 2
[15] = DSM29870, biological replicate MIC 3, 37° C., 20-24 h, read-out: MIC 3
[16] = biological replicate MIC 1, 37° C., 20-24 h
[17] = Trial 1, DSM 29870 1.10^9 CFU/kg of feed
[18] = Trial 2, DSM 29870 5.10^8 CFU/kg of feed
[19] = Trial 3, DSM 29870 5.10^8 CFU/kg of feed
[20] = biological replicate MIC 2, 37° C., 20-24 h
[21] = biological replicate MIC 3, 37° C., 20-24 h

Row | Molecule | MIC (B. subtilis DSM 29871 [1]; [7]) [µg/mL] | MIC (B. subtilis DSM 29871 [1]; [8]) [µg/mL] | MIC (B. subtilis DSM 29871 [1]; [9]) [µg/mL] | MIC [2, 10] [µg/mL] | MIC [2, 11] [µg/mL] | MIC [2, 12] [µg/mL] | MIC (B. subtilis DSM 29870 [3]; [13]) [µg/mL] | MIC (B. subtilis DSM 29870 [3]; [14]) [µg/mL] | MIC (B. subtilis DSM 29870 [3]; [15]) [µg/mL] | EFSA breakpoints (B. subtilis DSM 29871 [4]) [µg/mL] | EFSA breakpoints [5] [µg/mL] | EFSA breakpoints (B. subtilis DSM 29870 [6]) [µg/mL] | other results
1 | O=C(N[C@H](CO)[C@H](O)c1ccc([N+](=O)[O-])cc1)C(Cl)Cl [Chloramphenicol] | 8 (≈ 24.8 µM) | 4 (≈ 12.4 µM) | 8 (≈ 24.8 µM) | 4 (≈ 12.4 µM) | 4 (≈ 12.4 µM) | 4 (≈ 12.4 µM) | 4 (≈ 12.4 µM) | 8 (≈ 24.8 µM) | 4 (≈ 12.4 µM) | 8 | 8 | 8 | 
2 | CCC[C@@H]1C[C@@H](C(=O)N[C@@H]([C@H]2O[C@H](SC)[C@H](O)[C@@H](O)[C@H]2O)[C@H](C)Cl)N(C)C1 [Clindamycin] | 0.5 (≈ 1.18 µM) | 0.25 (≈ 0.588 µM) | 0.5 (≈ 1.18 µM) | 1 (≈ 2.35 µM) | 0.5 (≈ 1.18 µM) | 1 (≈ 2.35 µM) | 0.25 (≈ 0.588 µM) | 0.25 (≈ 0.588 µM) | 0.25 (≈ 0.588 µM) |  |  |  | 
3 | CC[C@H]1OC(=O)[C@H](C)[C@@H](O[C@H]2C[C@@](C)(OC)[C@@H](O)[C@H](C)O2)[C@H](C)[C@@H](O[C@@H]2O[C@H](C)C[C@H](N(C)C)[C@H]2O)[C@](C)(O)C[C@@H](C)C(=O)[C@H](C)[C@@H](O)[C@]1(C)O [Erythromycin] | 0.125 (≈ 0.17 µM) | 0.125 (≈ 0.17 µM) | 0.125 (≈ 0.17 µM) | 0.5 (≈ 0.681 µM) | 0.06 (≈ 0.0818 µM) | 0.06 (≈ 0.0818 µM) | 0.125 (≈ 0.17 µM) | 0.125 (≈ 0.17 µM) | 0.125 (≈ 0.17 µM) | 4 | 4 | 4 | 
4 | NC[C@H]1O[C@H](O[C@H]2[C@H](O)[C@@H](O[C@H]3O[C@H](CO)[C@@H](O)[C@H](N)[C@H]3O)[C@H](N)C[C@@H]2N)[C@H](O)[C@@H](O)[C@@H]1O [Kanamycin] | 2 (≈ 4.13 µM) | 1 (≈ 2.06 µM) | 2 (≈ 4.13 µM) | 2 (≈ 4.13 µM) | 0.5 (≈ 1.03 µM) | 0.5 (≈ 1.03 µM) | 2 (≈ 4.13 µM) | 1 (≈ 2.06 µM) | 2 (≈ 4.13 µM) |  |  |  | 
5 | [H]/N=C(/N)N[C@H]1[C@H](O)[C@@H](O)[C@H](O[C@@H]2O[C@@H](C)[C@](O)(C=O)[C@H]2O[C@@H]2O[C@@H](CO)[C@H](O)[C@@H](O)[C@@H]2NC)[C@@H](N/C(N)=N\[H])[C@@H]1O [Streptomycin] | 32 (≈ 55 µM) | 16 (≈ 27.5 µM) | 32 (≈ 55 µM) | 2 (≈ 3.44 µM) | 4 (≈ 6.88 µM) | 4 (≈ 6.88 µM) | 4 (≈ 6.88 µM) | 4 (≈ 6.88 µM) | 8 (≈ 13.8 µM) | 8 | 8 | 8 | 
6 | CN(C)[C@@H]1C(O)=C(C(N)=O)C(=O)[C@@]2(O)C(O)=C3C(=O)c4c(O)cccc4[C@@](C)(O)[C@H]3C[C@@H]12 [Tetracycline] | 2 (≈ 4.5 µM) | 4 (≈ 9 µM) | 4 (≈ 9 µM) | 16 (≈ 36 µM) | 8 (≈ 18 µM) | 8 (≈ 18 µM) | 0.25 (≈ 0.563 µM) | 0.25 (≈ 0.563 µM) | 0.25 (≈ 0.563 µM) |  |  |  | MIC 1 [2, 16]: 16 µg/mL (≈ 36 µM)
7 | CN[C@H](CC(C)C)C(=O)N[C@H]1C(=O)N[C@@H](CC(N)=O)C(=O)N[C@H]2C(=O)N[C@H]3C(=O)N[C@H](C(=O)N[C@H](C(=O)O)c4cc(O)cc(O)c4-c4cc3ccc4O)[C@H](O)c3ccc(c(Cl)c3)Oc3cc2cc(c3O[C@@H]2O[C@H](CO)[C@@H](O)[C@H](O)[C@H]2O[C@H]2C[C@](C)(N)[C@H](O)[C@H](C)O2)Oc2ccc(cc2Cl)[C@H]1O [Vancomycin] | 0.25 (≈ 0.173 µM) |  |  | 0.25 (≈ 0.173 µM) |  | 0.25 (≈ 0.173 µM) | 0.25 (≈ 0.173 µM) |  |  | 4 | 4 | 4 | MIC (B. subtilis DSM 29871 [1]; DSM29871, read-out: MIC 2): 0.25 µg/mL (≈ 0.173 µM); MIC (B. subtilis DSM 29871 [1]; DSM29871, read-out: MIC 3): 0.25 µg/mL (≈ 0.173 µM); MIC ([2]; DSM29869, read-out: MIC 2): 0.25 µg/mL (≈ 0.173 µM); MIC (B. subtilis DSM 29870 [3]; DSM29870, read-out: MIC 2): 0.25 µg/mL (≈ 0.173 µM); MIC (B. subtilis DSM 29870 [3]; DSM29870, read-out: MIC 3): 0.25 µg/mL (≈ 0.173 µM)
8 | CC[C@H](C)[C@H](N)C1=N[C@H](C(=O)N[C@@H](CC(C)C)C(=O)N[C@H](CCC(=O)O)C(=O)N[C@H](C(=O)N[C@H]2CCCCNC(=O)[C@H](CC(N)=O)NC(=O)[C@@H](CC(=O)O)NC(=O)[C@H](Cc3cnc[nH]3)NC(=O)[C@@H](Cc3ccccc3)NC(=O)[C@H]([C@@H](C)CC)NC(=O)[C@@H](CCCN)NC2=O)[C@@H](C)CC)CS1 [bacitracin] ({Ileψ(thiazoline)Cys}-L[dE]IK[dOrn]I[dF]H[dD]N; lactam 4-C) |  |  |  |  |  |  |  |  |  |  |  |  | Lesion score (d 21) (Clostridium perfringens; [17]): 0.2a; BWG (g/bird) (d 1-d 28) (Clostridium perfringens; [17]): 633ab g/bird; Dead birds with necrotic enteritis lesions (%) (d 1-d 28) (Clostridium perfringens; [17]): 1.6b %; FCR (d 1-d 28) (Clostridium perfringens; [17]): 1.813bc; Total mortality (%) (d 1-d 28) (Clostridium perfringens; [17]): 5.0b %; Lesion score (d 21) (Clostridium perfringens; [18]): 0.6b; BWG (g/bird) (d 1-d 28) (Clostridium perfringens; [18]): 665ab g/bird; Dead birds with necrotic enteritis lesions (%) (d 1-d 28) (Clostridium perfringens; [18]): 6.3c %; FCR (d 1-d 28) (Clostridium perfringens; [18]): 1.759b; Total mortality (%) (d 1-d 28) (Clostridium perfringens; [18]): 12.5bc %; Lesion score (d 21) (Clostridium perfringens; [19]): 0.6a; BWG (g/bird) (d 1-d 28) (Clostridium perfringens; [19]): 645a g/bird; Dead birds with necrotic enteritis lesions (%) (d 1-d 28) (Clostridium perfringens; [19]): 4.7bc %; FCR (d 1-d 28) (Clostridium perfringens; [19]): 1.786bc; Total mortality (%) (d 1-d 28) (Clostridium perfringens; [19]): 15.0a %
9 | Gentamycin |  |  |  |  |  |  |  |  |  | 4 | 4 | 4 | MIC 1 (B. subtilis DSM 29871 [1]; [16]): 0.25 µg/mL; MIC 2 (B. subtilis DSM 29871 [1]; [20]): 0.125 µg/mL; MIC 3 (B. subtilis DSM 29871 [1]; [21]): 0.25 µg/mL; MIC 1 [2, 16]: 0.5 µg/mL; MIC 2 [2, 20]: 0.125 µg/mL; MIC 3 [2, 21]: 0.06 µg/mL; MIC 1 (B. subtilis DSM 29870 [3]; [16]): 0.25 µg/mL; MIC 2 (B. subtilis DSM 29870 [3]; [20]): 0.125 µg/mL; MIC 3 (B. subtilis DSM 29870 [3]; [21]): 0.25 µg/mL
